According to patent publication US11266643B2, “Triaryl compounds for treatment of PD-L1 diseases” (CHEMOCENTRYX, INC., priority 2019, dated 2022):

molecular target: human PD-L1 (Homo sapiens (Human), UniProt Q9NZQ7); test: Enzyme-Linked Immunosorbent Assay (ELISA), PD-1/PD-L1 binding; settings: plate-coated human PD-L1, biotinylated Human PD-1, absorbance at 450 nm
In short: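 Plates coated with […] human PD-L1 overnight at 4° C, blocked, then 1:5 serial compound dilutions added with human PD-1 […] 0.31 μg/mL for 1 h at 37° C. Bound PD-1 detected with streptavidin-HRP and TMB (20 min, 37° C); absorbance read at 450 nm after H2SO4 stop.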

Chain of human PD-L1 (Q9NZQ7 19-239): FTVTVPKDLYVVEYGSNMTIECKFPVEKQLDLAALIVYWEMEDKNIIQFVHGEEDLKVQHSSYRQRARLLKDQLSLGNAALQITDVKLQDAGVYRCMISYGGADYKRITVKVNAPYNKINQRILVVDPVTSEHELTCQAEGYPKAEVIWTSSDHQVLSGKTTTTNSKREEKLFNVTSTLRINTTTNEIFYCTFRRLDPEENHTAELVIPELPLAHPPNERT

Compound	IC50
COc1cc(-c2cccc(-c3cccc(NC(=O)c4cn(C)c(=O)n(C)c4=O)c3C)c2Cl)cc(F)c1CN(C)[C@H]1CNC(=O)C1 [Example 2.061]	10 to 1000 nM
COc1cc(-c2cccc(-c3cccc(NC(=O)c4cn(C)c(=O)n(C)c4=O)c3Cl)c2Cl)cc(F)c1CN[C@H]1CCOC[C@@H]1O [Example 2.082]	< 10 nM
COc1cc(-c2cccc(-c3cccc(NC(=O)c4cn(C)c(=O)n(C)c4=O)c3C)c2Cl)cc(F)c1CNC1CCOCC1 [Example 2.083]	< 10 nM
COc1cc(-c2cccc(-c3cccc(NC(=O)c4cn(C)c(=O)n(C)c4=O)c3C)c2Cl)cc(F)c1CN[C@H]1CNC(=O)C1 [Example 2.084]	< 10 nM
COc1cc(-c2cccc(-c3cccc(NC(=O)c4cn(C)c(=O)n(C)c4=O)c3C)c2Cl)cc(F)c1CNC(C)(C)C(N)=O [Example 2.085]	10 to 1000 nM
COc1cc(-c2cccc(-c3cccc(NC(=O)c4cn(C)c(=O)n(C)c4=O)c3C)c2Cl)cc(F)c1CN[C@@H]1COCC[C@H]1O [Example 2.086]	< 10 nM
COc1cc(-c2cccc(-c3cccc(NC(=O)c4cn(C)c(=O)n(C)c4=O)c3C)c2Cl)cc(F)c1CN[C@H]1CCOC1 [Example 2.087]	< 10 nM
COc1cc(-c2cccc(-c3cccc(NC(=O)c4cn(C)c(=O)n(C)c4=O)c3C)c2Cl)cc(F)c1CN[C@H]1COCC[C@@H]1O [Example 2.088]	< 10 nM
COc1cc(-c2cccc(-c3cccc(NC(=O)c4cn(C)c(=O)n(C)c4=O)c3C)c2Cl)cc(F)c1CN[C@H]1CCOC[C@@H]1O [Example 2.089]	< 10 nM
COc1cc(-c2cccc(-c3cccc(NC(=O)c4cn(C)c(=O)n(C)c4=O)c3C)c2Cl)cc(F)c1CN[C@@H]1COC[C@H]1O [Example 2.090]	< 10 nM
COc1cc(-c2cccc(-c3cccc(NC(=O)c4cn(C)c(=O)n(C)c4=O)c3Cl)c2F)cc(F)c1CN[C@@H]1CCOC[C@@H]1O [Example 2.091]	< 10 nM
COc1cc(-c2cccc(-c3cccc(NC(=O)c4cn(C)c(=O)n(C)c4=O)c3C)c2Cl)cc(F)c1CN[C@H]1COC[C@@H]1O [Example 2.092]	< 10 nM
COc1cc(-c2cccc(-c3cccc(NC(=O)c4cn(C)c(=O)n(C)c4=O)c3C)c2Cl)cc(F)c1CN[C@H]1COC[C@H]1O [Example 2.093]	< 10 nM
COc1cc(-c2cccc(-c3cccc(NC(=O)c4cn(C)c(=O)n(C)c4=O)c3C)c2Cl)cc(F)c1CN[C@@H]1COC[C@@H]1O [Example 2.094]	< 10 nM
COc1cc(-c2cccc(-c3cccc(NC(=O)c4cn(C)c(=O)n(C)c4=O)c3C)c2F)cc(F)c1CN[C@H]1CCOC[C@@H]1O [Example 2.095]	< 10 nM
COc1cc(-c2cccc(-c3cccc(NC(=O)c4cn(C)c(=O)n(C)c4=O)c3C)c2C)cc(F)c1CN[C@H]1CCOC[C@@H]1O [Example 2.096]	< 10 nM
COc1cc(-c2cccc(-c3cccc(NC(=O)c4cn(C)c(=O)n(C)c4=O)c3C)c2C)cc(F)c1CN[C@H]1CCOC[C@H]1O [Example 2.097]	< 10 nM

Compound	IC50
COc1cc(-c2cccc(-c3cccc(NC(=O)c4cn(C)c(=O)n(C)c4=O)c3C)c2Cl)cc(F)c1CN[C@@H]1CCOC1 [Example 2.098]	< 10 nM
COc1cc(-c2cccc(-c3cccc(NC(=O)c4cn(C)c(=O)n(C)c4=O)c3C)c2F)cc(F)c1CN[C@@H]1CCOC[C@H]1O [Example 2.099]	< 10 nM
COc1cc(-c2cccc(-c3cccc(NC(=O)c4cn(C)c(=O)n(C)c4=O)c3Cl)c2C)cc(F)c1CN(C)C[C@@H]1CCC(=O)N1 [Example 2.100]	< 10 nM
COc1cc(-c2cccc(-c3cccc(NC(=O)c4cn(C)c(=O)n(C)c4=O)c3C)c2Cl)cc(F)c1CN[C@@H]1CCC(=O)NC1 [Example 2.101]	< 10 nM
COc1cc(-c2cccc(-c3cccc(NC(=O)c4cn(C)c(=O)n(C)c4=O)c3C)c2Cl)cc(F)c1CN[C@@H]1CCOC[C@H]1O [Example 2.102]	< 10 nM
COc1cc(-c2cccc(-c3cccc(NC(=O)c4cn(C)c(=O)n(C)c4=O)c3Cl)c2C)cc(F)c1CN[C@H]1CCOC[C@H]1O [Example 2.103]	< 10 nM
COc1cc(-c2cccc(-c3cccc(NC(=O)c4cn(C)c(=O)n(C)c4=O)c3C)c2Cl)cc(F)c1CN[C@H]1CCOC[C@H]1O [Example 2.104]	< 10 nM
COc1cc(-c2cccc(-c3cccc(NC(=O)c4cn(C)c(=O)n(C)c4=O)c3C)c2F)cc(F)c1CN[C@H]1CCOC[C@H]1O [Example 2.105]	< 10 nM
COc1cc(-c2cccc(-c3cccc(NC(=O)c4cn(C)c(=O)n(C)c4=O)c3F)c2Cl)cc(F)c1CN[C@@H]1CCOC[C@@H]1O [Example 2.106]	< 10 nM
COc1cc(-c2cccc(-c3cccc(NC(=O)c4cn(C)c(=O)n(C)c4=O)c3Cl)c2Cl)cc(F)c1CN[C@@H]1CCC(=O)NC1 [Example 2.107]	< 10 nM
COc1cc(-c2cccc(-c3cccc(NC(=O)c4cn(C)c(=O)n(C)c4=O)c3Cl)c2Cl)cc(F)c1CNCC(C)(C)C(N)=O [Example 2.108]	< 10 nM
COc1cc(-c2cccc(-c3cccc(Nc4nccc5nccnc45)c3Cl)c2Cl)cc(F)c1CN1CC(C)(C(=O)O)C1 [Example 2.109]	< 10 nM
COc1cc(-c2cccc(-c3cccc(Nc4nccc5nccnc45)c3Cl)c2Cl)cc(F)c1CN[C@@H]1COC[C@@H]1O [Example 2.110]	< 10 nM
COc1cc(-c2cccc(-c3cccc(Nc4nccc5nccnc45)c3C)c2Cl)cc(F)c1CNCC1(O)CC1 [Example 2.111]	< 10 nM
COc1cc(-c2cccc(-c3cccc(Nc4nccc5nccnc45)c3C)c2Cl)cc(F)c1CNCC(C)(C)O [Example 2.112]	< 10 nM
COc1cc(-c2cccc(-c3cccc(Nc4nccc5nccnc45)c3C)c2Cl)cc(F)c1CNCC(C)(C)C(N)=O [Example 2.113]	< 10 nM

Next, values leading:

IC50	Compound
< 10 nM	COc1cc(-c2cccc(-c3cccc(NC(=O)c4cn(C)c(=O)n(C)c4=O)c3C)c2Cl)cc(F)c1CNCC1(O)CC1 [Example 2.056]
< 10 nM	COc1cc(-c2cccc(-c3cccc(NC(=O)c4cn(C)c(=O)n(C)c4=O)c3C)c2Cl)cc(F)c1CNC(C)(C)CO [Example 2.057]
< 10 nM	COc1cc(-c2cccc(-c3cccc(NC(=O)c4cn(C)c(=O)n(C)c4=O)c3C)c2Cl)cc(F)c1CN(C)CCO [Example 2.058]
< 10 nM	COc1cc(-c2cccc(-c3cccc(NC(=O)c4cn(C)c(=O)n(C)c4=O)c3C)c2Cl)cc(F)c1CNCC1(C(N)=O)CC1 [Example 2.059]
< 10 nM	COc1cc(-c2cccc(-c3cccc(NC(=O)c4cn(C)c(=O)n(C)c4=O)c3C)c2Cl)cc(F)c1CN[C@H]1CCC[C@@H]1O [Example 2.060]
< 10 nM	COc1cc(-c2cccc(-c3cccc(NC(=O)c4cn(C)c(=O)n(C)c4=O)c3C)c2Cl)cc(F)c1CN(C)[C@@H]1CCOC[C@@H]1O [Example 2.062]
< 10 nM	COc1cc(-c2cccc(-c3cccc(NC(=O)c4cn(C)c(=O)n(C)c4=O)c3Cl)c2Cl)cc(F)c1CNC(C)C [Example 2.063]
< 10 nM	COc1cc(-c2cccc(-c3cccc(NC(=O)c4cn(C)c(=O)n(C)c4=O)c3C)c2Cl)cc(F)c1CNC(C)C [Example 2.064]
< 10 nM	COc1cc(-c2cccc(-c3cccc(NC(=O)c4cn(C)c(=O)n(C)c4=O)c3Cl)c2Cl)cc(F)c1CN[C@@H]1CCOC1 [Example 2.065]
< 10 nM	COc1cc(-c2cccc(-c3cccc(NC(=O)c4cn(C)c(=O)n(C)c4=O)c3Cl)c2Cl)cc(F)c1CN[C@H]1CCOC1 [Example 2.066]
< 10 nM	COc1cc(-c2cccc(-c3cccc(NC(=O)c4cn(C)c(=O)n(C)c4=O)c3C)c2Cl)cc(F)c1CN[C@@H]1CCCOC1 [Example 2.067]
< 10 nM	COc1cc(-c2cccc(-c3cccc(NC(=O)c4cn(C)c(=O)n(C)c4=O)c3Cl)c2Cl)cc(F)c1CN(C)[C@@H]1CNC(=O)C1 [Example 2.068]
< 10 nM	COc1cc(-c2cccc(-c3cccc(NC(=O)c4cn(C)c(=O)n(C)c4=O)c3C)c2Cl)cc(F)c1CN(C)C1CCOCC1 [Example 2.069]
< 10 nM	COc1cc(-c2cccc(-c3cccc(NC(=O)c4cn(C)c(=O)n(C)c4=O)c3Cl)c2Cl)cc(F)c1CN[C@@H]1COCC[C@H]1O [Example 2.070]
< 10 nM	COc1cc(-c2cccc(-c3cccc(NC(=O)c4cn(C)c(=O)n(C)c4=O)c3Cl)c2Cl)cc(F)c1CN[C@H]1COCC[C@@H]1O [Example 2.071]
< 10 nM	COc1cc(-c2cccc(-c3cccc(NC(=O)c4cn(C)c(=O)n(C)c4=O)c3C)c2Cl)cc(F)c1CN(C)[C@@H]1CNC(=O)C1 [Example 2.072]
< 10 nM	COc1cc(-c2cccc(-c3cccc(NC(=O)c4cn(C)c(=O)n(C)c4=O)c3Cl)c2Cl)cc(F)c1CN[C@@H]1COC[C@@H]1O [Example 2.073]
< 10 nM	COc1cc(-c2cccc(-c3cccc(NC(=O)c4cn(C)c(=O)n(C)c4=O)c3Cl)c2Cl)cc(F)c1CN[C@H]1COC[C@H]1O [Example 2.074]
< 10 nM	COc1cc(-c2cccc(-c3cccc(NC(=O)c4cn(C)c(=O)n(C)c4=O)c3Cl)c2Cl)cc(F)c1CN[C@@H]1COC[C@H]1O [Example 2.075]
< 10 nM	COc1cc(-c2cccc(-c3cccc(NC(=O)c4cn(C)c(=O)n(C)c4=O)c3Cl)c2Cl)cc(F)c1CN[C@H]1COC[C@@H]1O [Example 2.076]
< 10 nM	COc1cc(-c2cccc(-c3cccc(NC(=O)c4cn(C)c(=O)n(C)c4=O)c3Cl)c2C)cc(F)c1CN[C@H]1CCOC[C@@H]1O [Example 2.077]
< 10 nM	COc1cc(-c2cccc(-c3cccc(NC(=O)c4cn(C)c(=O)n(C)c4=O)c3Cl)c2C)cc(F)c1CN[C@@H]1CCOC[C@H]1O [Example 2.078]
< 10 nM	COc1cc(-c2cccc(-c3cccc(NC(=O)c4cn(C)c(=O)n(C)c4=O)c3Cl)c2F)cc(F)c1CNC[C@@H]1CCC(=O)N1 [Example 2.079]
< 10 nM	COc1cc(-c2cccc(-c3cccc(NC(=O)c4cn(C)c(=O)n(C)c4=O)c3C)c2Cl)cc(F)c1CN[C@H]1CCCOC1 [Example 2.080]
< 10 nM	COc1cc(-c2cccc(-c3cccc(NC(=O)c4cn(C)c(=O)n(C)c4=O)c3Cl)c2Cl)cc(F)c1CN[C@H]1CNC(=O)C1 [Example 2.081]
